Data: patent publication US9695162B2, “Sweet flavor modifier” (SENOMYX, INC., priority 2013, dated 2017)

Assays:
[1] = test system: human panelists (sweet taste); assay: Paired comparison taste test: enhancement of sucrose at pH 7.1 (6% sucrose + compound vs. 10%, 11% or 12% sucrose); type: in vivo
Description: (§1) Experiment 1: Sweet Flavor and Sweet Flavor Enhancement Measurement Using Human Panelists Conducting a Paired Comparison Test
(§2) Test samples containing experimental compounds were presented in pairs to the panelist and they were asked to determine which of the sample is sweeter. […] A group of 10-16 or more panelists participated in each test. Subjects refrained from eating or drinking (except water) for at least 1 hour prior to the test. Subjects rinsed with water several times to clean the mouth.
(§3) Taste tests were performed with sucrose or HFCS as the sweetener in the presence or absence of compound. A 0.2% stock solution of compound in water with sodium bicarbonate was prepared and then this stock solution was diluted in the final sample to achieve the targeted final concentration of compound. For the sample evaluated at pH 2.8 the pH of the solution is decreased to about pH 2.8 using citric acid. Taste samples were also prepared in a low sodium phosphate buffer (pH 7.1; “LSB”) lacking sucrose or HFCS to evaluate the taste of the compound alone. Low sodium phosphate buffer consists of 0.3 mM KCl, 0.5 mM Na2HPO4, and 0.175 mM KH2PO4. Sample volumes are usually 20 ml.
(§4) In one paired comparison test, the panelist was presented with two different samples and asked to identify the sample which is sweeter. The samples within a paired comparison test were presented in a randomized, counterbalanced order. Panelists had up to a 1 minute delay between taste tests to clear the mouth of any tastes.
(§5) Binomial probability tables were used to determine the probability of the correct number of responses occurring for each test at alpha=0.05

[2] = test system: human panelists (sweet taste); assay: Paired comparison taste test: enhancement of sucrose at pH 2.8 (6% sucrose + compound vs. 10%, 11% or 12% sucrose); type: in vivo
Description: as §1, §2, §3, §4, §5

[3] = test system: human panelists (sweet taste); assay: Paired comparison taste test: enhancement of HFCS at pH 2.8 (6% HFCS + compound vs. 8% or 9% HFCS); type: in vivo
Description: as §1, §2, §3
In one paired comparison test, the panelist was presented with two different samples and asked to identify the sample which is sweeter. […]

[4] = test system: human panelists (sweet taste); assay: Sweetness threshold: paired comparison taste test, LSB + compound vs. 1% sucrose; type: in vivo
Description: as §1, §2, §3, §4, §5

[5] = 10% Sucrose vs 6% Sucrose + 10 ppm Compound A1, n = 32 (16 panelists × 2 reps)
[6] = 11% Sucrose vs 6% Sucrose + 5 ppm Compound A1, n = 33
[7] = 1% Sucrose vs LSB + 25 ppm Compound A1, n = 26 (13 panelists × 2 reps)

Structure (SMILES)	melting point	Sample selected as sweeter by panelists (Total) [1, 5]	Sample selected as sweeter by panelists (Total) [2, 6]	Sample selected as sweeter by panelists (Total) [4, 7]	further results
CC(C)(COc1cccc2c1C(N)=NS(=O)(=O)N2)NC(=O)c1ccnc(-n2ccnc2N)c1.Cl	235 to 237 °C (dec.)				
CC(C)(COc1cccc2c1C(N)=NS(=O)(=O)N2)NC(=O)c1ccncc1 [Compound A1, N-(1-(4-amino-2,2-dioxido-1H-benzo[c][1,2,6]thiadiazin-5-yloxy)-2-methylpropan-2-yl)isonicotinamide]		18	12	12	Sucrose solution of equivalent sweetness (% sucrose) ([1]; 10 ppm compound in 6% sucrose): ~10%; Sucrose solution of equivalent sweetness (% sucrose) ([2]; 5 ppm compound in 6% sucrose): ~11%; HFCS solution of equivalent sweetness (% High Fructose Corn Syrup) ([3]; 5 ppm compound in 6% High Fructose Corn Syrup): ~9%; Sample selected as sweeter by panelists (Total) ([3]; 9% High Fructose Corn Syrup vs 6% High Fructose Corn Syrup + 20 ppm Compound A1, n = 32 (16 panelists × 2 reps)): 12
OC[C@H]1O[C@@](CO)(O[C@H]2O[C@H](CO)[C@@H](O)[C@H](O)[C@H]2O)[C@@H](O)[C@@H]1O [Sucrose, sucrose, reference compound]		14	21	14	Sample selected as sweeter by panelists (Total) ([1]; 11% Sucrose vs 6% Sucrose + 5 ppm Compound A6, n = 48 (16 panelists × 3 reps)): 24; Sample selected as sweeter by panelists (Total) ([2]; 12% Sucrose vs 6% Sucrose + 5 ppm Compound A6, n = 48 (16 panelists × 3 reps)): 22; Sample selected as sweeter by panelists (Total) ([4]; 1% Sucrose vs LSB + 10 ppm Compound A6, n = 30 (10 panelists × 3 reps)): 18

More lines, main results first:

melting point	Structure (SMILES)	Sample selected as sweeter by panelists (Total) [1, 5]	Sample selected as sweeter by panelists (Total) [2, 6]	Sample selected as sweeter by panelists (Total) [4, 7]	further results
> 200 °C	CC(C)(COc1cccc2c1C(N)=NS(=O)(=O)N2)NC(=O)c1ccnc(-n2cnc(CO)c2)c1 [Example 36, N-(1-((4-amino-2,2-dioxido-1H-benzo[c][1,2,6]thiadiazin-5-yl)oxy)-2-methylpropan-2-yl)-2-(4-(hydroxymethyl)-1H-imidazol-1-yl)isonicotinamide]				
> 200 °C	CC(C)(COc1cccc2c1C(N)=NS(=O)(=O)N2)NC(=O)c1ccnc(-n2cnc(C(=O)O)c2)c1 [Example 37, 1-(4-((1-((4-amino-2,2-dioxido-1H-benzo[c][1,2,6]thiadiazin-5-yl)oxy)-2-methylpropan-2-yl)carbamoyl)pyridine-2yl)1H-imidazole-4-carboxylic acid]				
